Test results: ChEMBL document CHEMBL1201862, “PubChem BioAssay data set” (2004)
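Cultured in 96-well plates, cells were exposed to test compound for 48 hours across five concentrations. Abbreviation: GI50, concentration required for 50% inhibition of growth.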 Activity calls are given as the source filed them. Rule as the data show it: active = GI50 up to about 1.1 µM and inactive = higher.

Tests used:
Experiment in all cases: DTP human tumour cell line panel, 48 h
BT-549 = tested on: BT-549
MDA-MB-435 = tested on: MDA-MB-435
DU-145 = tested on: DU-145
PC-3 = tested on: PC-3
T47D = tested on: T47D
MDA-MB-231 = tested on: MDA-MB-231
LXFL 529 = tested on: LXFL 529
RXF 631 = tested on: RXF 631

Measured: GI50

Cc1cccc(N2C(=O)C3c4[nH]c5ccc(C)cc5c4C4CCC(C(C)(C)C)CC4C3C2=O)c1 (centres undefined)
inactive: BT-549 27.4 µM | MDA-MB-435 40.9 µM | DU-145 16.1 µM | PC-3 13.7 µM | T47D 14.3 µM | MDA-MB-231 18.8 µM

CCOC(=O)C(O)(NC(=O)c1ccc(F)cc1)C(F)(F)F (centres undefined)
inactive: BT-549 > 100 µM | MDA-MB-435 > 100 µM | DU-145 > 100 µM | PC-3 > 100 µM | T47D > 100 µM | MDA-MB-231 59.8 µM

CC(/C=N/N=C(N)N)=N\N=C(N)N
inactive: BT-549 243 µM | MDA-MB-435 12.9 µM | LXFL 529 61.9 µM | DU-145 46.6 µM | PC-3 232 µM | T47D 1.91 µM | MDA-MB-231 22.6 µM

CCOC(C)OC1CC(n2cc(C)c(=O)[nH]c2=O)OC1CO (centres undefined)
inactive: LXFL 529 > 100 µM

Cc1ccccc1OCC(COC(=O)Nc1ccccc1)OC(=O)Nc1ccccc1 (centres undefined)
inactive: LXFL 529 45.9 µM | RXF 631 9.93 µM

CCCC[C@H]1[C@@H](OCOc2ccccc2)COC(=O)N1[C@H](C)c1ccccc1
inactive: BT-549 19.7 µM | MDA-MB-435 13.3 µM | DU-145 21.5 µM | PC-3 6.1 µM | T47D 11.3 µM | MDA-MB-231 13.3 µM

Cc1[nH]c(=O)[nH]c(=O)c1C(=O)N(CCO)Cc1ccccc1
inactive: BT-549 > 100 µM | MDA-MB-435 > 100 µM | DU-145 > 100 µM | PC-3 24.6 µM | T47D > 100 µM | MDA-MB-231 > 100 µM
